Reference: patent US4548952A, “2-[(2,6-Dichlorophenyl)amino]phenylacetoxyacetyl derivatives and therapeutic compositions containing same” (priority 1983, dated 1985)

How the values were obtained:
[1] = Test of abdominal contractions by acetic acid (analgesic); type: in vivo, male mice; conditions: gastric catheter, 16 mice, half an hour before acetic acid i.p.
Experimental: (§1) The new 2-[(2,6-dichlorophenyl)amino]phenylacetoxyacetyl derivatives, according to the present invention, are compounds of therapeutic use with anti-inflammatory and analgesic pharmacologic properties, as shown by experimental pharmacologic data presented below. The analgesic activity of the compound (I) where R=H was determined by three known methods as follows.
This test was carried out according to the experimental model described by Koster R., Anderson, M. and De Bear, E. J. Fed. Proc., 18, 412 (1959). A suspension of the product to be tested was administered to a group of male mice through a gastric catheter half an hour before injecting the mice intraperitoneally with 0.2 ml of a 2% acetic acid solution. The number of abdominal contractions, manifested by drawing in of the rear third of the animal as a consequence of the chemical aggression incited by the acetic acid, were then counted.

[2] = Hot plate thermal stimulus test on mice (analgesic); type: in vivo; conditions: gastric catheter, hot plate 56° C., 10 mice, vs control mice
Experimental: as §1
This test is carried out according to the experimental model of Wolfe, G. and MacDonal, A. D., described in 3. Pharm. Exper. Therap. 80, 300 (1944). This test consists of administering, through a gastric catheter, a suspension of the test compound at the indicated dosages. After 30 minutes, 1 h., 11/2 h. and 2 h. the determinations were made. Mice were placed onto a hot plate at a temperature of 56° C. Table 2 indicates the percentage of protection from pain afforded by the dosages of the test compound in comparison with a group of control mice to which no test compound was administered.

[3] = Podolorimetric test in a rat (analgesic, yeast-infected leg); type: in vivo; conditions: 10 rats, vs control rats
Experimental: as §1
This test is based upon the method described by Randall, L. and Selitto, 3. Arch. Int. Pharmacodyn. 111, 409 (1957), consisting of administering the drug in a 1% carboxymethylcellulose (CMC) suspension. The test compound is administered to the rat, and 30 minutes thereafter a 20% yeast suspension is administered into the left leg of the rat and the same amount of physiologic serum is administered to the right leg of the rat. The threshold of the weight supported by both legs is determined 1 h., 2 h. and 4 h. after the administration of the yeast. Table 3 states the percentage of protection in terms of increased weight supported by the yeast-infected leg, relative to the dosage of the test compound, in comparison with a group of control rats to which no test compound was administered.

[4] = Plantar carrageenin edema test (anti-inflammatory); type: in vivo, albino Sprague-Dawley male rats; conditions: gastric catheter; for Inhibition % M ± σ: complementary value to area relative inflammation; for % Area Relative Inflammation (M ± σ): control = 100%
Experimental: The anti-inflammatory activity of two compounds was studied by means of the test of the plantar carrageenin edema (C. A. Winter, Proc. Soc. Exp. Brol. Med. 111, 544-47 (1962). The method used consists of preparing homogeneous lots of albino Sprague-Dawley male rats with weights of from 180-200 gr, to which are administered, by gastric catheter, the test compound suspended in a vehicle containing 0.2% CMC and 0.1% Tween 80, sixty minutes before the production of the subplantar edema. […] Immediately after this, all the rats received via oral administration 20 ml/kg of distilled water to attain uniform hydration. 60 minutes later a 1% carrageenin solution in physiologic serum was administered subcutanaceously into the left rear leg of each rat, at a dosage of 0.1 ml/rat. The same amount of physiologic serum was then injected into the right rear leg of each rat.
The plantar amount of the left and right rear extremities of each rat was determined before the administration of the carrageenin solution, and 1, 2, 3, 4, 5 and 6 hours after the administration thereof by means of a mercury plethysmograph, Ugo Basile Model 7.100. Indomethacin was used as a sample drug for purposes of comparison. Results were calculated as percentages representing the value indicated for each area relative to the value of the areas for the control group to which were assigned the value of 100% inflammation. A complementary value, the percentage of inhibition, was also calculated from the data. The arithmetic average and standard deviation (M±σ) were calculated for the obtained values as to the volumes of each leg, normal or inflamed, for each animal in each group (control and treated).

[5] = Acute toxicity by oral administration to rats; conditions: for LD0: oral, rats
Experimental: The acute toxicity of the foregoing compounds according to the present invention was studied by oral administration thereof to rats. The LD0 and LD50 values were determined, together with the limits of reliability as determined by the method of Litchfield and Wilcoxon.

[6] = Fetal and teratogenous toxicity; type: in vivo, Sprague-Dawley rats and first generation fetuses; conditions: 15, 50 and 75 mg/kg/day oral during organogenesis

Which results are given for `O=C(O)COC(=O)Cc1ccccc1Nc1c(Cl)cccc1Cl` [I, R = H, 2-[(2,6-dichlorophenyl)amino]phenylacetoxyacetic acid]?
% PROTECTION (CONTROL OF CONTRACTIONS) ([1]; 100 mg/kg): 30.81%; % PROTECTION (CONTROL OF CONTRACTIONS) ([1]; 250 mg/kg): 67.62%; % PROTECTION ([2]; 20 mg/kg): 22.44%; % PROTECTION ([2]; 40 mg/kg): 24.80%; % PROTECTION (increased weight supported by the yeast-infected leg) ([3]; 2.5 mg/kg): 32.05%; % PROTECTION (increased weight supported by the yeast-infected leg) ([3]; 10 mg/kg): 45.45%; Inhibition % M ± σ ([4]; 3.0 mg/kg, 32 animals): 33.75%; % Area Relative Inflammation (M ± σ) ([4]; 3.0 mg/kg, 32 animals): 63.25 ± 5.88%; LD0 [5]: 68.03 mg/kg; teratogenous effects [6]: did not have any teratogenous effects; toxic effects on the gestating females [6]: did not produce any toxic effects on the gestating females

With `COc1ccc2c(c1)c(CC(=O)O)c(C)n2C(=O)c1ccc(Cl)cc1` [INDOMETHACIN, Indomethacin, reference compound] as the compound, how does the “Inhibition % M ± σ” value ([4]; 2.5 mg/kg, 40 animals) read?
Its value is 46.52%.

What about the “% Area Relative Inflammation (M ± σ)” value ([4]; 2.5 mg/kg, 40 animals) of the same compound?
Its value is 53.48 ± 7.82%.

For `O=C(COC(=O)Cc1ccccc1Nc1c(Cl)cccc1Cl)OCc1ccccc1` [I, R = CH2 --C6 H5, Benzyl 2-[(2,6-dichlorophenyl)amino]phenylacetoxyacetate], which “Inhibition % M ± σ” value ([4]; 3.75 mg/kg, 32 animals) is on record?
Its value is 35.96%.

What about the “% Area Relative Inflammation (M ± σ)” value ([4]; 3.75 mg/kg, 32 animals) of the same compound?
The value was 64.04 ± 7.91%.

And the LD0 [5]?
The LD0 was 38.51 mg/kg.

And the LD50 ([5]; rat, in vivo, po)?
Its LD50 is 95.3 mg/kg.

What about the teratogenous effects [6] of the same compound?
Its teratogenous effects is “did not have any teratogenous effects”.

What about the “toxic effects on the gestating females” value [6] of the same compound?
Its value is “did not produce any toxic effects on the gestating females”.
